Source: the NIST ThermoML archive (doi:10.1016/j.jct.2016.03.010)

Assay: mn = molality of the nth substance listed, in mol/kg
Details: 101 kPa, Liquid; for viscosity: Capillary tube (Ostwald / Ubbelohde) method; for mass density: Vibrating tube method

O=C(O)c1cccnc1 [3-carboxylpyridine] + O
Details	mass density, 298.15 K [kg/m3]	mass density, 308.15 K [kg/m3]	mass density, 318.15 K [kg/m3]	viscosity, 298.15 K [mPa·s]	viscosity, 308.15 K [mPa·s]	viscosity, 318.15 K [mPa·s]
m1 = 0.0202	997.92	994.89	991.06	0.8951	0.7224	0.5972
m1 = 0.0365	998.6	995.55	991.69	0.8988	0.725	0.5992
m1 = 0.0529	999.27	996.21	992.33	0.9015	0.7275	0.601
m1 = 0.0695	999.95	996.87	992.96	0.905	0.7308	0.6051
m1 = 0.0863	1000.62	997.52	993.59	0.9088	0.734	0.6074
m1 = 0.1032	1001.3	998.17	994.23	0.9119	0.7368	0.6094
